Assays:
Format in all cases: cell-based
[1] = tested on: baseline pathogens of bacterial conjunctivitis patients; experiment: MIC of baseline clinical trial isolates, Studies 373, 433, 434 (all species)
CDC coryneform group G = experiment: MIC of clinical trial isolates, Studies 373, 433, 434; conditions: N 29
Description: (§1) PFGE testing was performed per standard procedures.
(§2) The antibacterial susceptibility profile of each Visit 1 bacterial isolate was determined for besifloxacin and other antimicrobials.

H. influenzae = experiment: as above; conditions: Haemophilus influenzae, all phenotypes, N 344
Description: as §1, §2

S. mitis group = experiment: as above; conditions: Streptococcus mitis group, N 45
Description: as §1, §2

S. pneumoniae = experiment: as above; conditions: Streptococcus pneumoniae, all phenotypes, N 302
Description: as §1, §2

Streptococcus oralis = experiment: as above; conditions: N 18
Description: as §1, §2

S. aureus = experiment: as above; conditions: Staphylococcus aureus, all phenotypes, N 190
S. epidermidis = experiment: as above; conditions: Staphylococcus epidermidis, all phenotypes, N 111
[2] = tested on: Corynebacterium pseudodiphtheriticum; experiment: as above; conditions: N 8
Corynebacterium striatum = experiment: as above; conditions: N 8
Staphylococcus hominis = experiment: as above; conditions: N 9
[3] = tested on: Staphylococcus lugdunensis; experiment: as above; conditions: N 8
Streptococcus mitis = experiment: as above; conditions: Streptococcus mitis (listed separately from S. mitis group), N 20
Description: PFGE testing was performed per standard procedures. […] Analysis Populations

Streptococcus salivarius = experiment: as above; conditions: N 9

| Structure (SMILES) | MIC50 ([1]; All organisms, N 1324) [µg/mL] | MIC90 ([1]; All organisms, N 1324) [µg/mL] | MIC50 ([1]; Gram-negative, N 438) [µg/mL] | MIC90 ([1]; Gram-negative, N 438) [µg/mL] | MIC50 ([1]; Gram-positive, N 886) [µg/mL] | MIC90 ([1]; Gram-positive, N 886) [µg/mL] | MIC50 (CDC coryneform group G) [µg/mL] | MIC90 (CDC coryneform group G) [µg/mL] | MIC50 (H. influenzae) [µg/mL] | MIC90 (H. influenzae) [µg/mL] | MIC50 (S. mitis group) [µg/mL] | MIC90 (S. mitis group) [µg/mL] | MIC50 (S. pneumoniae) [µg/mL] | MIC90 (S. pneumoniae) [µg/mL] | MIC50 (Streptococcus oralis) [µg/mL] | MIC90 (Streptococcus oralis) [µg/mL] | MIC Range (Streptococcus oralis) [µg/mL] | MIC50 (S. aureus) [µg/mL] | MIC90 (S. aureus) [µg/mL] | MIC50 (S. epidermidis) [µg/mL] | further results |
| --- | --- | --- | --- | --- | --- | --- | --- | --- | --- | --- | --- | --- | --- | --- | --- | --- | --- | --- | --- | --- | --- |
| CC1COc2c(N3CCN(C)CC3)c(F)cc3c(=O)c(C(=O)O)cn1c23 (centres unmarked) [OFLOX] | 0.5 | 2 | 0.03 | 0.25 | 1 | 4 | 0.125 | 2 | 0.03 | 0.06 | 2 | 4 | 1 | 2 | 2 | 4 | 0.125 | 0.5 | >8 | 0.5 | MIC Range (S. mitis group): 0.25 µg/mL; MIC90 (S. epidermidis): >8 µg/mL; MIC Range (S. epidermidis): 0.25 µg/mL; MIC50 [2]: 1 µg/mL; MIC Range [2]: 0.125 to 2 µg/mL; MIC50 (Corynebacterium striatum): 0.125 µg/mL; MIC50 (Staphylococcus hominis): 0.25 µg/mL; MIC Range (Staphylococcus hominis): 0.25 µg/mL; MIC50 [3]: 1 µg/mL; MIC50 (Streptococcus mitis): 2 µg/mL; MIC90 (Streptococcus mitis): 2 µg/mL; MIC Range (Streptococcus mitis): 1 to 4 µg/mL; MIC50 (Streptococcus salivarius): 2 µg/mL; MIC Range (Streptococcus salivarius): 2 to 4 µg/mL |
| C[C@H]1COc2c(N3CCN(C)CC3)c(F)cc3c(=O)c(C(=O)O)cn1c23 [LEVO] | 0.25 | 1 | 0.03 | 0.125 | 0.5 | 2 | 0.06 | 1 | 0.03 | 0.03 | 1 | 2 | 0.5 | 1 | 1 | 2 | 0.125 to 2 | 0.25 | 8 | 0.25 | MIC Range ([1]; Gram-negative, N 438): ≦0.004-8 μg/mL; MIC Range (H. influenzae): ≦0.004-1 μg/mL; MIC Range (S. pneumoniae): 0.125 to 2 µg/mL; MIC90 (S. epidermidis): 8 µg/mL; MIC50 [2]: 0.5 µg/mL; MIC Range [2]: 0.06 to 1 µg/mL; MIC50 (Corynebacterium striatum): 0.06 µg/mL; MIC Range (Corynebacterium striatum): 0.03 to 4 µg/mL; MIC50 (Staphylococcus hominis): 0.125 µg/mL; MIC Range (Staphylococcus hominis): 0.125 to 4 µg/mL; MIC50 [3]: 0.25 µg/mL; MIC Range [3]: 0.25 to 2 µg/mL; MIC50 (Streptococcus mitis): 1 µg/mL; MIC90 (Streptococcus mitis): 1 µg/mL; MIC Range (Streptococcus mitis): 0.5 to 2 µg/mL; MIC50 (Streptococcus salivarius): 1 µg/mL; MIC Range (Streptococcus salivarius): 1 to 2 µg/mL |

Reference: patent US8415342B2, “Besifloxacin ophthalmic composition for the treatment or control of infection” (Bausch & Lomb Incorporated, priority 2008, dated 2013)
